The structures appear in SMILES notation.

As a reminder, the IC50 is the concentration at which inhibition is half-maximal. The low end stands for greater potency, the high end for weaker potency.

Experiment [1] addresses Tyrosine-protein kinase JAK2 (Homo sapiens, UniProt O60674). As to the kind of experiment: Inhibition of JAK2 (unknown origin) using tyrosine 6 peptide as substrate by z'-lyte assay.
The target in experiment [2] is Non-receptor tyrosine-protein kinase TYK2 (Homo sapiens, UniProt P29597). As to the kind of experiment: Inhibition of TYK2 (unknown origin) using tyrosine 3 peptide as substrate by z'-lyte assay.
Experiment [3] addresses Tyrosine-protein kinase JAK1 (Homo sapiens, UniProt P23458). As to the kind of experiment: Inhibition of JAK1 (unknown origin) using tyrosine 6 peptide as substrate by z'-lyte assay.
The target in experiment [4] is T1, Tyrosine-protein kinase JAK3 (Homo sapiens, UniProt P52333).
T1 sequence (P52333 whole entry): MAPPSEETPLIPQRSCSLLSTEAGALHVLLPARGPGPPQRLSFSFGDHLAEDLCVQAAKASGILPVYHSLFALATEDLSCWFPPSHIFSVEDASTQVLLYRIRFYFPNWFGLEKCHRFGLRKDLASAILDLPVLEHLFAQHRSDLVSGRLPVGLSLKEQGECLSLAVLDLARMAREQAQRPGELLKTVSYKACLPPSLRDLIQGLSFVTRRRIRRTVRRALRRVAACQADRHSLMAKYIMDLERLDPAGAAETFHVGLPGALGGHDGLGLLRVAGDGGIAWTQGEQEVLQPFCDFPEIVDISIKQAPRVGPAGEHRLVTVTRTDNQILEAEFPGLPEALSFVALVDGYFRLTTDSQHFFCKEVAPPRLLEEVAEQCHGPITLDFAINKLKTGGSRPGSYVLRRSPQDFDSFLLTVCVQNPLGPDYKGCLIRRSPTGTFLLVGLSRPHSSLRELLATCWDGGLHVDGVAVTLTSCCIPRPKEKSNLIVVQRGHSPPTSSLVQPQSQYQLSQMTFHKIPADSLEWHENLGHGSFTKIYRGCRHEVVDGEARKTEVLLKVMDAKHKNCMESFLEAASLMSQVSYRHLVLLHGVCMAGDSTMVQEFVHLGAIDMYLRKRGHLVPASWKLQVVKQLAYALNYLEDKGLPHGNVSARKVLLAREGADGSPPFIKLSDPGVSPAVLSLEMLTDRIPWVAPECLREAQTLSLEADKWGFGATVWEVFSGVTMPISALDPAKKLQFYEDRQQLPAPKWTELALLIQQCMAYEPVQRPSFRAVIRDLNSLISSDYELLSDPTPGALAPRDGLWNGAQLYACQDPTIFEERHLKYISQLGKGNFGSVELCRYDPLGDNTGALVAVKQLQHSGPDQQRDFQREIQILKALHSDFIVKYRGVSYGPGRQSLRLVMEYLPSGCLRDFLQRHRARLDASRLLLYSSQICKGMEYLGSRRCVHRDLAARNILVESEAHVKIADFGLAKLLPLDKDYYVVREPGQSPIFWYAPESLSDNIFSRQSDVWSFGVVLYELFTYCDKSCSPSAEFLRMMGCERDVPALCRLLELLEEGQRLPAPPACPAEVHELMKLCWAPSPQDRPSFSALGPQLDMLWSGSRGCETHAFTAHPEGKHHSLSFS
As to the kind of experiment: Inhibition of JAK3 (unknown origin) using tyrosine 6 peptide as substrate by z'-lyte assay.

In experiment [5] the target is Tyrosine-protein kinase JAK1 (Mus musculus, UniProt P52332). As to the kind of experiment: Inhibition of FLAG-tagged mouse JAK1 expressed in insect Sf9 cells using biotin-EQEDEPEGDYFEWLE-NH2 as substrate.
Sequence of Tyrosine-protein kinase JAK1 (Mus musculus, UniProt P52332) (P52332 whole entry): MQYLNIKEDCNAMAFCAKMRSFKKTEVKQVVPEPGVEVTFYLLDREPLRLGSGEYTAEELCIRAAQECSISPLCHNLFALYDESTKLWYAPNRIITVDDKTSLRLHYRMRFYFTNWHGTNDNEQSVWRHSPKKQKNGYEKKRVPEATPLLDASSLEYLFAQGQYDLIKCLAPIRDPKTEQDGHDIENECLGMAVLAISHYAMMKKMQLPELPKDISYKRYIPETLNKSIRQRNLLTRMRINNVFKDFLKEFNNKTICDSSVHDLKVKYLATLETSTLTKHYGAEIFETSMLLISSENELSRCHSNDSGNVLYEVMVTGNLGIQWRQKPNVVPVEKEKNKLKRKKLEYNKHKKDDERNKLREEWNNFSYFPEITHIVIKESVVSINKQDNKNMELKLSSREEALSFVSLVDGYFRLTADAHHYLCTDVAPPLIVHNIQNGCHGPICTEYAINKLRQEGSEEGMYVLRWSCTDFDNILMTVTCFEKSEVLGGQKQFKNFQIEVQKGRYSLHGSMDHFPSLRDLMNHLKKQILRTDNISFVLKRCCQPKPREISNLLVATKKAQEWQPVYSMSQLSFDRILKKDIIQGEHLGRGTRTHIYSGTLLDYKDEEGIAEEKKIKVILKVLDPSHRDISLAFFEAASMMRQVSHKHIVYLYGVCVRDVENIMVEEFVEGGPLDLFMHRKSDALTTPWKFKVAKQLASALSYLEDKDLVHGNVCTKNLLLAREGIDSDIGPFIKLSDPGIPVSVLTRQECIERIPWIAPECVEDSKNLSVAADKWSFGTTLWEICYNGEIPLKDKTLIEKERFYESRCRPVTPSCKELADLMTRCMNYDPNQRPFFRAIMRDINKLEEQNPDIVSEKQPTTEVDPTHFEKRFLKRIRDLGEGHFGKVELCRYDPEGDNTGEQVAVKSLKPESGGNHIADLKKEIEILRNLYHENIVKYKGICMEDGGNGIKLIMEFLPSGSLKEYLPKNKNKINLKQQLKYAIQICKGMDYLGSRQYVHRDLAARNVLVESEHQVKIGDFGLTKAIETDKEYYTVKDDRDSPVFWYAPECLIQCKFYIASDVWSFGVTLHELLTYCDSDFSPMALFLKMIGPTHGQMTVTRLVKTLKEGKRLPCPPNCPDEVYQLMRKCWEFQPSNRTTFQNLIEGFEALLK

Sequence of Tyrosine-protein kinase JAK2 (O60674 whole entry): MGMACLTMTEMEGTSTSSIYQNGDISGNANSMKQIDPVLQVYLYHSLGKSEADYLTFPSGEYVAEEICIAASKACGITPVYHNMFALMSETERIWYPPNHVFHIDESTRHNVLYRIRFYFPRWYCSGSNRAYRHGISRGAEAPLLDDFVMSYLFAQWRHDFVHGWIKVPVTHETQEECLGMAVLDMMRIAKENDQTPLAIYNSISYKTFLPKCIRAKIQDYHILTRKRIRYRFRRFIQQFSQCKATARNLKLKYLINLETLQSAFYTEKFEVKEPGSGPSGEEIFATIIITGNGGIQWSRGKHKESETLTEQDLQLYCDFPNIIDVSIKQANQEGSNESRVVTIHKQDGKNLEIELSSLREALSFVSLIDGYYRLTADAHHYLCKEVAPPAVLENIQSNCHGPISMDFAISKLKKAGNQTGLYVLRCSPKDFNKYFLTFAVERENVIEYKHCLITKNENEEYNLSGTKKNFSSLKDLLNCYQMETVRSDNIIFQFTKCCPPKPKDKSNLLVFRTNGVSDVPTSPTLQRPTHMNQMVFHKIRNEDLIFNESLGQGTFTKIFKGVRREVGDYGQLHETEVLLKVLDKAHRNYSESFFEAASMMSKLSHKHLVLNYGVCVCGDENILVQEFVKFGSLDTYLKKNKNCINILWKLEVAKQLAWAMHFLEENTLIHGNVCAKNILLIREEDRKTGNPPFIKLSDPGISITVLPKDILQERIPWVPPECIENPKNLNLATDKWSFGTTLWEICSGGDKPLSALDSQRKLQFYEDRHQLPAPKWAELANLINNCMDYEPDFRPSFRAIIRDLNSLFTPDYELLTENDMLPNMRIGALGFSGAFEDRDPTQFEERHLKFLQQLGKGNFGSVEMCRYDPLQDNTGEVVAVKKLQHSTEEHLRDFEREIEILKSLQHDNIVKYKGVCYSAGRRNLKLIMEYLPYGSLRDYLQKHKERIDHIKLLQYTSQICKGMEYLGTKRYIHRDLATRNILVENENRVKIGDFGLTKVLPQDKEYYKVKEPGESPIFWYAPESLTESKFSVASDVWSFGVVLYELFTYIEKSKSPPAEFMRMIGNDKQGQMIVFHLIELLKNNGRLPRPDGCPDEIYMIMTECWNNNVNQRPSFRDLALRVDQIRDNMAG
Sequence of Tyrosine-protein kinase JAK1 (Homo sapiens, UniProt P23458) (P23458 whole entry): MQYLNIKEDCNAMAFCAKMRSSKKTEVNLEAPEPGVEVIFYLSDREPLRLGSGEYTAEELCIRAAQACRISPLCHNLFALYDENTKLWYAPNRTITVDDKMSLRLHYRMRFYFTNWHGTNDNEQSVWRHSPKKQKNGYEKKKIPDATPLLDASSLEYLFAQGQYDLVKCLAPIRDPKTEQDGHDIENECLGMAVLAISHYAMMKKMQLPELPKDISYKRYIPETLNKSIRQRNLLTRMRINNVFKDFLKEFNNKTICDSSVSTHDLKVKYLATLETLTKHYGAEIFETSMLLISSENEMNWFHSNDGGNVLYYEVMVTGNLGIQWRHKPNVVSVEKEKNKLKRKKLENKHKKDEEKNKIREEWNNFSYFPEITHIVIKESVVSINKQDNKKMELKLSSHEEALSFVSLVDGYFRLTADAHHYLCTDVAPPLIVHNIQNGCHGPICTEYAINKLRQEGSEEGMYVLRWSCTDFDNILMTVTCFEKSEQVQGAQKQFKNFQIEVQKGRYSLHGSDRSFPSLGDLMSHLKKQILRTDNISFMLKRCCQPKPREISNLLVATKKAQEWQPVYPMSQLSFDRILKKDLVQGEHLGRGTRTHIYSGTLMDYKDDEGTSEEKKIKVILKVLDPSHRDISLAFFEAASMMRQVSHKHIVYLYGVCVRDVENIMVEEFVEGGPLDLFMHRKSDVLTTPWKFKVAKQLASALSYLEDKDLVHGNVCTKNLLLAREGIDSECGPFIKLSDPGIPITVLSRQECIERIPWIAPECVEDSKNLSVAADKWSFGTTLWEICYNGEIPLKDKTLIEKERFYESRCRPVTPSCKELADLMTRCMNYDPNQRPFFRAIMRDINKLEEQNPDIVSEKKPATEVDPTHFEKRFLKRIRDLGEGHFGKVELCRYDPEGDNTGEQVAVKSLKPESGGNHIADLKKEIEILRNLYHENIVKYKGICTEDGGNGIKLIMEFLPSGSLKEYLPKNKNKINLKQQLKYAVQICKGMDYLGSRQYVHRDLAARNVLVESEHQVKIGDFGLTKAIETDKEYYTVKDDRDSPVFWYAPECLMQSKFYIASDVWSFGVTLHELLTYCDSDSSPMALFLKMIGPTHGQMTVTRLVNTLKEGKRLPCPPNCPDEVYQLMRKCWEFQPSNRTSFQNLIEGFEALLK
Sequence of Non-receptor tyrosine-protein kinase TYK2 (P29597 whole entry): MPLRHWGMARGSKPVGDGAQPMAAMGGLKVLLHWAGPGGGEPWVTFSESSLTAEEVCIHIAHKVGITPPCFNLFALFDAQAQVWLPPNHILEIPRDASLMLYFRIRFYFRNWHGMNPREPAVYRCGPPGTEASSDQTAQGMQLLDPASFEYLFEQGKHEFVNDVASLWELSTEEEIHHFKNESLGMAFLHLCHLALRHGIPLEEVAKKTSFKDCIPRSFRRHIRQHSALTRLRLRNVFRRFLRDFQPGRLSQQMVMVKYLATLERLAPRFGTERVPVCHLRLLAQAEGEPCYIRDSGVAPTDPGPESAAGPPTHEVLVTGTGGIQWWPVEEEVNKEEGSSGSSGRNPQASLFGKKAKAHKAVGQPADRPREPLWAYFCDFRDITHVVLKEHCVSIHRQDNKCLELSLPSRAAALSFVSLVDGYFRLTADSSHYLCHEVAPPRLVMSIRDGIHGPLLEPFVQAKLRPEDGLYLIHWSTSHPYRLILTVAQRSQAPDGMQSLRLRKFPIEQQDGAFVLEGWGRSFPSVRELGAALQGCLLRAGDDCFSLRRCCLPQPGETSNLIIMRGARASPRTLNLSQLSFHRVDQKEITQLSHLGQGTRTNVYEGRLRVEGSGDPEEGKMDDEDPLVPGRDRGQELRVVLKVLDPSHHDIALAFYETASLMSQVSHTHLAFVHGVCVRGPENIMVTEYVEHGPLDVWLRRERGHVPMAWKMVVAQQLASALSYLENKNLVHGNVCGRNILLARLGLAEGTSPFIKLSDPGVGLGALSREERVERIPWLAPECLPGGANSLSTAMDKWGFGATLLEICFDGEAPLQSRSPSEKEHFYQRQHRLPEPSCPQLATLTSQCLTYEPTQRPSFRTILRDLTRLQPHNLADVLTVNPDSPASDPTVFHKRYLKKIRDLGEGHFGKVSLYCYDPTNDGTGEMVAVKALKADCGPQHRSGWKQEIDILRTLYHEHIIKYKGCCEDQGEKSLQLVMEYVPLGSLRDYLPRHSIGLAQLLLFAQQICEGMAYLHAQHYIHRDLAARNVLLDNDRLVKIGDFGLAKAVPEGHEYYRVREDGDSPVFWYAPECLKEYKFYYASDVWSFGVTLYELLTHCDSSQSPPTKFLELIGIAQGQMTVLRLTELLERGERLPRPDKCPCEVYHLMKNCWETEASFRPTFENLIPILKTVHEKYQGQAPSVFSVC

Turning to `CNCCn1c(C2CCNCC2)nc2cc(C(N)=O)ccc21`, the IC50 was found to be 3.1 µM in experiment [1], 4.1 µM in experiment [2], 0.09 µM in experiment [3] and 1.5 µM in experiment [4].

For the compound `NCCCn1c(C2CCNCC2)nc2cc(C(N)=O)ccc21`, the IC50 in experiment [2] came out at 31 µM; in experiment [3], 5.4 µM; in experiment [4], 14.3 µM.

For the compound `NCCn1c(C2CCNCC2)nc2cc(C(N)=O)ccc21`, it took 0.05 µM to reach half-maximal inhibition in experiment [5] (IC50).

For the compound `NCCCn1c2ccc(C(N)=O)cc2nc1[C@H]1CC[C@H](O)CC1`, the results for the IC50 in experiment [2], in experiment [3] and in experiment [4] were 30.7 µM, 5.3 µM and 12.4 µM, respectively.

For the compound `CNCCn1c2ccc(C(N)=O)cc2nc1[C@H]1CC[C@H](O)CC1`, the IC50 in experiment [1] was 3.9 µM; in experiment [2], 5.6 µM; in experiment [3], 0.15 µM; in experiment [4], 1.9 µM.

On to `NC(=O)c1ccc2c(c1)nc([C@H]1CC[C@H](O)CC1)n2CCCO`, for which the IC50 in experiment [1] stood at 29.7 µM; in experiment [2] it was 42.2 µM; in experiment [3], 7 µM; in experiment [4] it was 20.6 µM.

`C[C@@H](O)Cn1c2ccc(C(N)=O)cc2nc1[C@H]1CC[C@H](O)CC1`: the IC50 in experiment [1] turned out to be 12.1 µM; in experiment [2] it was 25.7 µM; in experiment [3], 2 µM; in experiment [4] it was 8.5 µM.

With `NC(=O)c1ccc2c(c1)nc([C@H]1CC[C@H](O)CC1)n2CCO`, the IC50 in experiment [1] came to 3.2 µM; in experiment [2], 4.3 µM; in experiment [3], 0.08 µM; in experiment [4] it was 1.8 µM.
